Activity calls are given as the source filed them. The calls are words filed in the database; no cut-off is given here.
Key:
SW480 = assay: Cytotoxicity against human SW480 cells assessed as decrease in cell viability after 72 hrs by MTT assay; format: functional
A549 [1] = assay: Cytotoxicity against human A549 cells assessed as decrease in cell viability after 72 hrs by MTT assay; format: functional
NCI-H1975 = assay: Cytotoxicity against human NCI-H1975 cells assessed as decrease in cell viability after 72 hrs by MTT assay; format: functional
A-431 = assay: Cytotoxicity against human A431 cells assessed as decrease in cell viability after 72 hrs by MTT assay; format: functional
[2] = target: T1, Epidermal growth factor receptor (Homo sapiens, UniProt P00533); assay: Inhibition of wild type recombinant EGFR (unknown origin) using poly (Glu,Tyr) 4:1 as substrate after 60 mins by ELISA
T1 sequence (P00533 whole entry): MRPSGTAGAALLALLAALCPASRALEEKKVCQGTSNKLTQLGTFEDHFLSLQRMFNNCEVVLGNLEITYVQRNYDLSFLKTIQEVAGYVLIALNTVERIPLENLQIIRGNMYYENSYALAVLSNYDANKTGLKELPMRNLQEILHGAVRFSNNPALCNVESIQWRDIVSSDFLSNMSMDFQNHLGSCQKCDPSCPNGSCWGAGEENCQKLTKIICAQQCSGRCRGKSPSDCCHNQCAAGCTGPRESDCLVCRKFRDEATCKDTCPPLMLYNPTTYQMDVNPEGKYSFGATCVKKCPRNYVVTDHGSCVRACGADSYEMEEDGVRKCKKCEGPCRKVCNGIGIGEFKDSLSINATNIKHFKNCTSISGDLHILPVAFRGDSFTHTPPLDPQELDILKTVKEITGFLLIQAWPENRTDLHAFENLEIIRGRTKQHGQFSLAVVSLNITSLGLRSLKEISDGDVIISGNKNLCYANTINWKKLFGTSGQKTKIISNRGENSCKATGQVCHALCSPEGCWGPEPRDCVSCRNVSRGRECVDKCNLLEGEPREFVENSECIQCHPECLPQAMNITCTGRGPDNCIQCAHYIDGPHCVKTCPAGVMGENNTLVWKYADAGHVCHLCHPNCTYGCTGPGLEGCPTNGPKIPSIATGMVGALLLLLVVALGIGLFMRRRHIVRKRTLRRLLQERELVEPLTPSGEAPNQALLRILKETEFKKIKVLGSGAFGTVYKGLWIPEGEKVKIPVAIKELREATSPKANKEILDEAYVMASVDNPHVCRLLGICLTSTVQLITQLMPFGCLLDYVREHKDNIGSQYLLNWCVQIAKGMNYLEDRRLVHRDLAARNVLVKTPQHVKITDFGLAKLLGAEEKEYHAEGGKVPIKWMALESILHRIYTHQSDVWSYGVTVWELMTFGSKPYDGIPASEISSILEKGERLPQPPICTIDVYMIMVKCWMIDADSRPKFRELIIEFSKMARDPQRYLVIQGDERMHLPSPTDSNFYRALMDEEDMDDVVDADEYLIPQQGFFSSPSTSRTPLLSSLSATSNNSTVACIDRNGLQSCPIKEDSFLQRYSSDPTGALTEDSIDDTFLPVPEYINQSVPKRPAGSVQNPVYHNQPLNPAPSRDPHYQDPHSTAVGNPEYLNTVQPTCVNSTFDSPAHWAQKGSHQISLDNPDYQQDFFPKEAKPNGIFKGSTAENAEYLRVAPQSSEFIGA

A549 [3] = assay: Effect on total Erk levels in human A549 cells at 1 to 50 uM after 2 hrs by Western blot method; format: ADME, cell-based; conditions: a549, 2 h
[4] = target: T1, Epidermal growth factor receptor; assay: Inhibition of EGFR phosphorylation at Tyr residue in human A549 cells at 1 uM preincubated for 2 hrs followed by EGF induction measured after 10 mins by Western blot method; format: cell-based
[5] = target: T1, Epidermal growth factor receptor; assay: Inhibition of EGFR phosphorylation at Y1068 in human A549 cells at 1 uM preincubated for 2 hrs followed by EGF induction measured after 10 mins by Western blot method; format: cell-based
[6] = target: T1, Epidermal growth factor receptor; assay: Inhibition of EGFR in human A549 cells assessed as decrease in Akt phosphorylation at S473 at 1 uM preincubated for 2 hrs followed by EGF induction measured after 10 mins by Western blot method; format: cell-based
[7] = target: T1, Epidermal growth factor receptor; assay: Inhibition of EGFR in human A549 cells assessed as decrease in ERK1/2 phosphorylation at T202/204 at 1 uM preincubated for 2 hrs followed by EGF induction measured after 10 mins by Western blot method; format: cell-based
A549 [8] = assay: Effect on total EGFR levels in human A549 cells at 1 to 50 uM after 2 hrs by Western blot method; format: ADME, cell-based; conditions: a549, 2 h
A549 [9] = assay: Effect on total Akt levels in human A549 cells at 1 to 50 uM after 2 hrs by Western blot method; format: ADME, cell-based; conditions: a549, 2 h
A549 [10] = assay: Effect on total GAPDH levels in human A549 cells at 1 to 50 uM after 2 hrs by Western blot method; format: ADME, cell-based; conditions: a549, 2 h
[11] = target: T1, Epidermal growth factor receptor; assay: Inhibition of EGFR phosphorylation at Tyr residue in human NCI-H1975 cells at 50 uM preincubated for 2 hrs followed by EGF induction measured after 10 mins by Western blot method; format: cell-based
[12] = target: T1, Epidermal growth factor receptor; assay: Inhibition of EGFR phosphorylation at Y1068 in human NCI-H1975 cells at 50 uM preincubated for 2 hrs followed by EGF induction measured after 10 mins by Western blot method; format: cell-based
[13] = target: T1, Epidermal growth factor receptor; assay: Inhibition of EGFR in human NCI-H1975 cells assessed as decrease in Akt phosphorylation at S473 at 50 uM preincubated for 2 hrs followed by EGF induction measured after 10 mins by Western blot method; format: cell-based
[14] = target: T1, Epidermal growth factor receptor; assay: Inhibition of EGFR in human NCI-H1975 cells assessed as decrease in Erk1/2 phosphorylation at T202/204 at 50 uM preincubated for 2 hrs followed by EGF induction measured after 10 mins by Western blot method; format: cell-based

**Q.** What does the source list for `C/C=C/c1ccc(Nc2ncnc3ccc(-c4ccc(CO)o4)cc23)cc1`?
**A.** IG50 (SW480): 51.25 µM; IG50 (A549 [1]): 38.24 µM; IG50 (NCI-H1975): 37.93 µM; IG50 (A-431): 21.43 µM

**Q.** Which IG50 (SW480) does the source give for `CC(=O)OCc1ccc(-c2ccc3ncnc(Nc4ccc(F)c(Cl)c4)c3c2)o1` here?
**A.** 43.18 µM

**Q.** And the IG50 (A549 [1])?
**A.** >100 µM

**Q.** What about the IG50 (NCI-H1975) of the same compound?
**A.** 54.13 µM

**Q.** And the IG50 (A-431)?
**A.** 10.75 µM

**Q.** How did the IG50 (SW480) turn out when `C#Cc1cccc(Nc2ncnc3ccc(-c4ccc(CO)o4)cc23)c1` was run?
**A.** >100 µM

**Q.** And the IG50 (A549 [1])?
**A.** >100 µM

**Q.** And the IG50 (NCI-H1975)?
**A.** >100 µM

**Q.** What about the IG50 (A-431) of the same compound?
**A.** 3.21 µM

**Q.** And the IC50 [2]?
**A.** 15.7 nM

**Q.** With `OCc1ccc(-c2ccc3ncnc(Nc4ccc(OCc5cccc(F)c5)c(Cl)c4)c3c2)o1` as the compound, how does the Activity (A549 [3]) read?
**A.** Non-Toxic

**Q.** And the IG50 (SW480)?
**A.** 5.58 µM

**Q.** And the IG50 (A549 [1])?
**A.** 7.35 µM

**Q.** What about the IG50 (NCI-H1975) of the same compound?
**A.** 3.01 µM

**Q.** And the IG50 (A-431)?
**A.** 3.64 µM

**Q.** And the IC50 [2]?
**A.** 5.06 nM

**Q.** And the inhibition [4]?
**A.** Active

**Q.** And the inhibition [5]?
**A.** Active

**Q.** And the inhibition [6]?
**A.** Active

**Q.** And the inhibition [7]?
**A.** Active

**Q.** What about the Activity (A549 [8]) of the same compound?
**A.** Non-Toxic

**Q.** What about the Activity (A549 [9]) of the same compound?
**A.** Non-Toxic

**Q.** And the Activity (A549 [10])?
**A.** Non-Toxic

**Q.** And the inhibition [11]?
**A.** Active

**Q.** What about the inhibition [12] of the same compound?
**A.** Active

**Q.** What about the inhibition [13] of the same compound?
**A.** Active

**Q.** What about the inhibition [14] of the same compound?
**A.** Active

**Q.** For `CS(=O)(=O)CCNCc1ccc(-c2ccc3ncnc(Nc4ccc(OCc5cccc(F)c5)c(Cl)c4)c3c2)o1` [LAPATINIB], which IG50 (SW480) is on record?
**A.** 12.58 µM

**Q.** What about the IG50 (A549 [1]) of the same compound?
**A.** 14.9 µM

**Q.** What about the IG50 (NCI-H1975) of the same compound?
**A.** 9.08 µM

**Q.** What about the IG50 (A-431) of the same compound?
**A.** 4.8 µM

**Q.** For `CC(=O)OCc1ccc(-c2ccc3ncnc(Nc4ccc(OCc5cccc(F)c5)c(Cl)c4)c3c2)o1`, which IG50 (SW480) is on record?
**A.** 5.18 µM

**Q.** And the IG50 (A549 [1])?
**A.** 5.49 µM

**Q.** What about the IG50 (NCI-H1975) of the same compound?
**A.** 6.78 µM

**Q.** What about the IG50 (A-431) of the same compound?
**A.** 8.33 µM

**Q.** Which results are given for `OCc1ccc(-c2ccc3ncnc(Nc4ccc(F)c(Cl)c4)c3c2)o1`?
**A.** IG50 (SW480): >100 µM; IG50 (A549 [1]): >100 µM; IG50 (NCI-H1975): >100 µM; IG50 (A-431): 3.91 µM

**Q.** What does the source list for `C/C=C/c1ccc(Nc2ncnc3ccc(-c4ccc(COC(C)=O)o4)cc23)cc1`?
**A.** IG50 (SW480): 11.18 µM; IG50 (A549 [1]): 20.61 µM; IG50 (NCI-H1975): 40.85 µM; IG50 (A-431): 5.53 µM

**Q.** How did the IG50 (SW480) turn out when `C#Cc1cccc(Nc2ncnc3ccc(-c4ccc(CNCCS(C)(=O)=O)o4)cc23)c1` was run?
**A.** 13.38 µM

**Q.** What about the IG50 (A549 [1]) of the same compound?
**A.** 11.35 µM

**Q.** What about the IG50 (NCI-H1975) of the same compound?
**A.** 14.92 µM

**Q.** And the IG50 (A-431)?
**A.** 5.78 µM

**Q.** What does the source list for `CS(=O)(=O)CCNCc1ccc(-c2ccc3ncnc(Nc4ccc(F)c(Cl)c4)c3c2)o1`?
**A.** IG50 (SW480): 60.59 µM; IG50 (A549 [1]): >100 µM; IG50 (NCI-H1975): 83.61 µM; IG50 (A-431): 39.34 µM; IC50 [2]: 24 nM

**Q.** For `C#Cc1cccc(Nc2ncnc3ccc(-c4ccc(COC(C)=O)o4)cc23)c1`, which IG50 (SW480) is on record?
**A.** 14.97 µM

**Q.** What about the IG50 (A549 [1]) of the same compound?
**A.** 4.05 µM

**Q.** What about the IG50 (NCI-H1975) of the same compound?
**A.** 5.4 µM

**Q.** What about the IG50 (A-431) of the same compound?
**A.** 1.28 µM

**Q.** With `C/C=C/c1ccc(Nc2ncnc3ccc(-c4ccc(CNCCS(C)(=O)=O)o4)cc23)cc1` as the compound, how does the IG50 (SW480) read?
**A.** 56.34 µM

**Q.** And the IG50 (A549 [1])?
**A.** 84.5 µM

**Q.** What about the IG50 (NCI-H1975) of the same compound?
**A.** >100 µM

**Q.** And the IG50 (A-431)?
**A.** 37.56 µM

— ChEMBL document CHEMBL4004868, “Synthesis and in vitro biological evaluation of novel quinazoline derivatives” (Bioorg Med Chem Lett, 2017)
